Measurements published in US8372848B2, “Melanin-concentrating hormone receptor antagonists and methods of use” (Mixture Sciences, Inc., priority 2004, dated 2013).
Entries after “also recorded” stand apart in the source; their conditions may differ.

Legend:
MCH1R = target: T1, MCH1R (Rattus norvegicus, UniProt P97639); test: Library screening: inhibition of 30 nM MCH-induced Ca2+ mobilization in CHO cells expressing MCH1R; type: cell-based; conditions: five concentrations, ten-fold dilutions starting at 10 µM
T1 construct: expressed in transfected cells; host or cells: CHO
Protocol: A total of thirteen heterocyclic or peptidomimetics PS-SCLs containing 8,136,870 individual compounds were tested (Table 1). Most libraries were generated in a PS format by using 40˜50 amino acids at each of the R1 and R2 positions, and 40˜80 carboxylic acids at the R3 position. A sample set of PS-SCLs was screened initially, sub-libraries with defined R3 positions and a mixture of building blocks at each of the other two positions were prepared (all compounds in the library are represented). Each sub-library was composed of 40˜80 mixtures containing 1,500˜3,200 individual compounds. […]
Each mixture was assayed in duplicate in three separate assays at three concentrations (1, 0.1 and 0.01 µg/ml) (FIG. 1B). MCH1R inhibition was calculated as the percent decrease in intracellular Ca^2+ mobilization in MCH1R expressing CHO cells induced by 30 nM MCH in the presence or absence of the mixture. […]
Transfected […] cells seeded on black-walled 96-well plates (Sigma, St Louis USA) were loaded for 1 h at 37° C. with Ca^2+-sensitive fluorescent dye, fluo-4 (Molecular Device, CA) in Hanks' balanced salt solution containing 20 mM HEPES (pH 7.4). The level of [Ca^2+]i was then monitored using a FLIPR system (Fluorometric Imaging Plate Reader; Molecular Devices, San Francisco, Calif.). […] Data were expressed as fluorescence (arbitrary units) versus time.

rats = test: Spontaneous activity (ambulatory and non-ambulatory movements) after icv administration, Example IV; type: in vivo, rat
Protocol: To determine the effect of TPI 1361-17 on spontaneous activity on rats, intraventricular cannulated rats were acclimatized to the testing situation. […] Ambulatory movements and non-ambulatory movements were monitored for 60 minutes upon administration of five nmol TPI 1361-17 or ACSF (FIGS. 4A, 4B).
For these experiments, ambulatory movements were recorded using a Hamilton-Kinder Activity Monitor (with the infrared beams in a 4×8 configured frame). Locomotion was quantified in transparent polycarbonate cages (32×26×20 cm) placed within the activity frames. Animal position was detected by two dimensional beam breaks. The ambulation was tabulated as a movement that results in the change of location. All other beam breaks are categorized as non-ambulatory, fine movement. Animals were acclimatized to the novel home cage-environment for 60 minutes before injection, then were removed, injected and immediately replaced in the same cage, and monitoring began. Locomotion was measured for 60 minutes after the ICV administration of either ACSF or 5 nmol TPI 1361-17.
For animal studies, adult male Sprague-Dawley rats weighing 200-300g were obtained from Charles River Laboratories (Wilmington, Mass.), bearing a 23-gauge stainless steel cannula placed into the right lateral ventricle. […]

T1 sequence (P97639 whole entry): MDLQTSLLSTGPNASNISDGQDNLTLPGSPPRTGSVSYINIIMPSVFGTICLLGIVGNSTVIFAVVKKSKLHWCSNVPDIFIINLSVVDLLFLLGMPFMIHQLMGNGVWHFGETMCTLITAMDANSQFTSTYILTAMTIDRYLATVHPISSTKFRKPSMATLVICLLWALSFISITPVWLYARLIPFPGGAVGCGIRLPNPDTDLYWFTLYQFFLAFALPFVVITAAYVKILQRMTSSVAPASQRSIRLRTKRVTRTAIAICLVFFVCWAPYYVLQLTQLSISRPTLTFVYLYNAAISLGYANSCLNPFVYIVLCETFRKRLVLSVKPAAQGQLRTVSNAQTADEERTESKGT

IC50 inhibiting 30 nM MCH-induced Ca2+ mobilization, 84 individual compounds (MCH1R): highest affinity
Total amounts of non-ambulatory or ambulatory movements versus ACSF (rats; 5 nmol icv, 60 minutes): no significant differences
Compound: C[C@@H](CNCc1ccccc1)N1C[C@H](CCCNC(=N)N)N(CCc2cccc(F)c2)C1=S [TPI 1361-17, N-(3-{(4S)-1-[(1S)-2-(benzylamino)-1-methylethyl]-3-[2-(3-fluorophenyl)ethyl]-2-thioxoimidazolidin-4-yl}propyl)guanidine]
Detectable changes in movement (rats; five or one nmol icv): did not exhibit any detectable changes in movement; also recorded: did not affect locomotion or fine movements
